Laboratory results from PMC9650263, “Synthesis and appraisal of dalbergin-loaded PLGA nanoparticles modified with galactose against hepatocellular carcinoma: In-vitro, pharmacokinetic, and in-silico studies” (Frontiers in Pharmacology, 2022).
Converted amounts (≈) assume the structure as drawn.

What was measured:
[1] = system: HepG2 cell line; experiment: SRB growth inhibition assay, anticancer efficacy; format: cell-based; conditions: Homo sapiens, HepG2, 48 h, 10-80 μg/ml, read-out: GI50 (growth inhibitory concentration)
Protocol: National Cell Repository of NCCS (Pune, India) provided the HepG2 cell line, which was then grown in our cell culture lab for further in vitro assays. The liver cancer cell lines were grown in a T-75 flask for 24 h at 37°C, 5% CO2, and absolute humidity equal to 100% in the Roswell Park Memorial Institute (RPMI)-1640 media with 10% fetal bovine serum and 2 mM L-glutamine. The cells were collected by centrifugation and incubated at a density of 5×10^3 cells/well onto 96 well plates to measure the growth. The test samples were distributed in dimethyl sulfoxide at 100 mg/ml concentration, diluted to 1 mg/ml equivalent drug concentration in distilled H2O. […] After removing the attached dye with 10 mM Trizma base, absorbance was measured at 540 nm using a 690 nm reference. The findings were acquired in triplicate on different plates, and the mean of the three trials was determined. The % cell growth was measured using absorbance data (time zero [Tz], control growth (C), and test growth in the presence of drug at different concentrations [Ti]. The % growth inhibition was calculated using the following formula Ti−Tz/C−Tz×100 for concentrations for which Ti≥Tz […]
It was shown that the quantity of protein formation was reduced by 50% at a medication concentration of […]. […]

[2] = Oral pharmacokinetic study, HPLC quantification in plasma; format: in vivo, albino Wistar rats; conditions: rat plasma, DL equivalent 100 mg/kg
Protocol: DL, DLF, and DLMF were administered orally to albino Wistar rats at a dose of DL equivalent to 100 mg/kg (Approval No: IU/IAEC/20/01), and after the first treatment, the blood samples were collected through retro-orbital plexus of the animals at 0.083, 0.25, 0.5, 1, 2, 4, 8, 12, 16, 24, and 48 h. The serum was isolated from the blood by centrifugation for 10 min at 10,000 rpm. The serum samples were kept at -20 °C until quantification by HPLC analysis.
A precise and accurate bioanalytical approach was devised for drug quantification in plasma samples. ACN was used to make 1 mg/ml stock solution of DL, and stock solution in ACN was used to make working standard solutions of 0.02, 0.1, 0.2, 0.5, 1, 2, 5, 10, 50, and 100 μg/ml. Overall, separate tubes containing 100 […] and 100 […] were vortexed for 30 min. The tubes were then spun at 13,000 rpm for 5 min. The supernatant was collected, transferred to fresh tubes, and allowed to dry overnight at a temperature of 40°C. After that, the tubes were reconstituted with 100 μL of ACN, vortexed for 5 minutes, and 20 μL of supernatant was injected into HPLC to quantify DL. The working solution concentrations were 0.01, 0.05, 0.1, 0.25, 0.5, 1, 2.5, 5.0, 25.0, and 50.0 μg/ml. Low-quality control (LQC), medium quality control (MQC), and high-quality control (HQC) samples were created with different quantities of 0.005, 0.5, and 40 μg/ml, respectively. It was necessary to create quality control samples and triplicate calibrations for each concentration. A test tube containing 100 μL of test plasma and 100 μL of ACN was vortexed for 30 min to create the test samples. To assess the final outcomes, WinNonlin version 1.5.3 was used ([Nisha et al., 2020a]; [Kumar, P., et al., 2018]; [Nisha et al., 2020b]).

[3] = In vitro drug release study; format: physicochemical; conditions: up to 48 h, 37°C; media pH 1.2 and 7.4 described, medium of the values not stated
Protocol: At pH values of 1.2 and 7.4, the drug release perspectives of DLF and DLMF were studied in both simulated gastric and simulated intestinal fluids. A flask was placed in an incubator with a water bath continually swirling (100 rev/min) and kept at a temperature of 37°C. The flask was filled with 10 ml of the appropriate medium and weighed amounts of DLF and DLMF that were sufficient for 10 mg of DL. The dissolving solution in the flask was then routinely replaced with new media at regular intervals, after which 2 ml of the sample was collected for DL detection. The samples were analyzed at 254 nm using a UV-Vis Spectrometer (Labtronics-2910, India), which was utilized to quantify the DL release. Triplicate dissolution tests were carried out. The data was analyzed to determine release kinetics ([Song, X., et al., 2018]; [Kanoujia, J., et al., 2021]; [Song, X., et al., 2019]; [Kumar, P., et al., 2018]).

With `COc1cc2oc(=O)cc(-c3ccccc3)c2cc1O` [DL, 6-hydroxy-7-methoxy-4-phenyl-2H-cromen-2-one] the GI50 [1] was 20 µg/mL (≈ 74.6 µM), the AUC(0-inf) ([2]; albino Wistar) was 244 ± 10.3 µg·h/mL and the Cmax ([2]; albino Wistar) was 23100 ± 840 ng/mL. It also gave an MRT ([2]; albino Wistar) of 11.5 ± 1.01 h, a Tmax ([2]; albino Wistar) of 4 h and a half-life ([2]; albino Wistar) of 9.63 h. The AUMC [2] was 2806.95 µg.h^2/ml and the “cumulative discharge (in vitro release)” value [3] was “around 40.97 ± 3.01%”.
